From patent USRE48461E1, “Modulation of androgen receptor expression” (Ionis Pharmaceuticals, Inc., priority 2012, dated 2021)

Legend:
Format in all cases: cell-based, human
[1] = system: TMPRSS2 mRNA; assay: TMPRSS2 expression in LNCaP cells (complete, CSS+DHT medium); conditions: for Percent inhibition of TMPRSS2 expression in LNCaP cells cultured in CSS + DHT medium: CSS + DHT (1 nM) medium, 48 hrs; for Percent inhibition of TMPRSS2 expression in LNCaP cells cultured in complete medium: 48 hours
Experimental: Cells were plated at 1,000 cells per well. […] ISIS 549148 was included as a negative control. […] After an incubation period of 48 hours, RNA levels of AR, PSA and TMPRSS2 were measured.
Cells were plated at 2,000 cells per well and cultured in phenol red-free RPMI supplemented with 5% charcoal stripped serum (Gibco) media for 16 hours. […] ISIS 549148 was included as a negative control. […] After an incubation period of 4 hrs, DHT was added to the medium to a final concentration of 1 nM as indicated. RNAs were collected 48 hrs later and levels of AR, PSA and TMPRSS2 were measured. In the absence of DHT, AR expression in LNCaP cells was 95%, PSA expression was 7% and TMPRSS2 expression was 24% compared to the untreated control.

[2] = system: VCaP cells; assay: VCaP cell proliferation; conditions: 5 days; for Proliferation (% untreated control): VCaP cells
Experimental: (§1) After a treatment period of 5 days in complete medium or CSS+1 nM DHT medium, the proliferative capacity of the cancer cells was measured with using CellTiter 96® AQueous One or CellTiter-Glo® Solution Cell Proliferation kit (Promega), following the manufacturer's instructions. […] Treatment with ISIS oligonucleotides in CSS+DHT medium reduced the proliferative capacity to a greater extent than treatment with MVD-3100. The proliferative capacity of cells cultured in CSS medium without DHT is 12% of untreated control levels.

[3] = system: PSA mRNA; assay: PSA expression in VCaP cells; conditions: 48 hrs
Experimental: Cells were plated at 10,000 cells per well. […] After an incubation period of 48 hrs, RNA levels of full length AR, the V7 variant, PSA and TMPRSS2 were measured.
After an incubation period of 48 hrs, RNA levels of full length AR, the V7 variant, PSA and TMPRSS2 were measured. The data is presented in Tables 108 expressed as percent expression of gene levels compared to the untreated control.
Cells were plated at 15,000 cells per well and cultured in CSS media for 16 hours. […] After 4 hrs, 1 nM DHT was added. […] After an incubation period of 48 hrs, RNA levels of AR, PSA and TMPRSS2 were measured.

[4] = system: TMPRSS2 mRNA; assay: TMPRSS2 mRNA levels in LMR20 cells; conditions: for TMPRSS2 mRNA levels (% baseline value) after treatment with DHT / TMPRSS2 mRNA levels (% baseline value) after treatment with R1881 / TMPRSS2 mRNA levels (% baseline value) of cells without AR agonist treatment: LMR20 cells; for TMPRSS2 mRNA levels (% baseline value) after treatment with DHT: DHT 10 nM 72 hrs; for TMPRSS2 mRNA levels (% baseline value) after treatment with R1881: R1881 10 nM 72 hrs; for TMPRSS2 mRNA levels (% baseline value) of cells without AR agonist treatment: no AR agonist
Experimental: LMR20 cells were plated at 1,500 cells per well in phenol red-free medium with CSS.

[5] = system: cleaved PARP; assay: Cleaved PARP western blot in VCaP cells
[6] = system: 22RV1 cells; assay: 22RV1 cell proliferation (Example 32); conditions: 5 days
Experimental: as §1, with “complete” for “complete medium or CSS+1 nM DHT”

[7] = system: PSA mRNA; assay: PSA expression in C4-2 cells; conditions: 48 hrs; for Percent inhibition of PSA expression: C4-2 cells, CSS + DHT medium
Experimental: Cells were plated at 1,000 cells per well. […] After an incubation period of 48 hrs, RNA levels of AR, PSA and TMPRSS2 were measured.
Cells were plated at 2,000 cells per well and cultured in CSS media with 1 nM DHT. […] After an incubation period of 48 hrs, RNA levels of AR, PSA and TMPRSS2 were measured.

With `CNC(=O)c1ccc(N2C(=S)N(c3ccc(C#N)c(C(F)(F)F)c3)C(=O)C2(C)C)cc1F` [MDV3100, 4-(3-(4-cyano-3-(trifluoromethyl)phenyl)-5,5-dimethyl-4-oxo-2-thioxoimidazolidin-1-yl)-2-fluoro-N-methylbenzamide, reference compound] the “Percent inhibition of TMPRSS2 expression in LNCaP cells cultured in CSS + DHT medium” value (“Percent inhibition … in CSS + DHT medium” below) ([1]; 0.04 μM) was 8%, the “Percent inhibition … in CSS + DHT medium” value ([1]; 0.2 μM) was 24% and the “Percent inhibition … in CSS + DHT medium” value ([1]; 1 μM) was 60%. The “Percent inhibition … in CSS + DHT medium” value ([1]; 5.0 μM) was 69%, the “Percent inhibition of TMPRSS2 expression in LNCaP cells cultured in complete medium” value ([1]; 0.04 μM) was 0% and the “Percent inhibition of TMPRSS2 expression in LNCaP cells cultured in complete medium” value ([1]; 0.2 μM) was 0%. For the same compound, the “Percent inhibition of TMPRSS2 expression in LNCaP cells cultured in complete medium” value ([1]; 1 μM) was 34%, the “Percent inhibition of TMPRSS2 expression in LNCaP cells cultured in complete medium” value ([1]; 5.0 μM) was 39% and the “Proliferation (% untreated control)” value ([2]; CSS + DHT medium, 0.04 μM) was 117 % untreated control. For the same compound, the “Proliferation (% untreated control)” value ([2]; CSS + DHT medium, 0.2 μM) was 119 % untreated control, the “Proliferation (% untreated control)” value ([2]; CSS + DHT medium, 1.0 μM) was 71 % untreated control and the “Proliferation (% untreated control)” value ([2]; CSS + DHT medium, 5.0 μM) was 65 % untreated control. For the same compound, the “Proliferation (% untreated control)” value ([2]; Complete medium, 0.04 μM) was 49 % untreated control, the “Proliferation (% untreated control)” value ([2]; Complete medium, 0.2 μM) was 44 % untreated control and the “Proliferation (% untreated control)” value ([2]; Complete medium, 1.0 μM) was 27 % untreated control. The “Proliferation (% untreated control)” value ([2]; Complete medium, 5.0 μM) was 17 % untreated control, the “proliferation of VCaP cells” value ([2]; complete medium or CSS+1 nM DHT) was “reduced proliferation of the cells in a dose dependent compared to the control” and the “Percent of gene expression, PSA” value ([3]; CSS + DHT medium, 0.04 μM) was 90%. For the same compound, the “Percent of gene expression, PSA” value ([3]; CSS + DHT medium, 0.2 μM) was 72%, the “Percent of gene expression, PSA” value ([3]; CSS + DHT medium, 1.0 μM) was 57% and the “Percent of gene expression, PSA” value ([3]; CSS + DHT medium, 5.0 μM) was 30%. For the same compound, the “Percent of gene expression, PSA” value ([3]; complete medium, 0.04 μM) was 105%, the “Percent of gene expression, PSA” value ([3]; complete medium, 0.2 μM) was 76% and the “Percent of gene expression, PSA” value ([3]; complete medium, 1.0 μM) was 75%. For the same compound, the “Percent of gene expression, PSA” value ([3]; complete medium, 5.0 μM) was 61%, the “TMPRSS2 mRNA levels (% baseline value) after treatment with DHT” value ([4]; ASO 0.04 μM) was 134 % baseline value and the “TMPRSS2 mRNA levels (% baseline value) after treatment with DHT” value ([4]; ASO 0.20 μM) was 144 % baseline value. The “TMPRSS2 mRNA levels (% baseline value) after treatment with DHT” value ([4]; ASO 1.0 μM) was 132 % baseline value, the “TMPRSS2 mRNA levels (% baseline value) after treatment with DHT” value ([4]; ASO 5.0 μM) was 124 % baseline value and the “TMPRSS2 mRNA levels (% baseline value) after treatment with R1881” value ([4]; ASO 0.20 μM) was 125 % baseline value. The “TMPRSS2 mRNA levels (% baseline value) after treatment with R1881” value ([4]; ASO 1.0 μM) was 133 % baseline value, the “TMPRSS2 mRNA levels (% baseline value) after treatment with R1881” value ([4]; ASO 5.0 μM) was 139 % baseline value and the “TMPRSS2 mRNA levels (% baseline value) of cells without AR agonist treatment” value ([4]; ASO 0.04 μM) was 101 % baseline value. For the same compound, the “TMPRSS2 mRNA levels (% baseline value) of cells without AR agonist treatment” value ([4]; ASO 0.20 μM) was 119 % baseline value, the “TMPRSS2 mRNA levels (% baseline value) of cells without AR agonist treatment” value ([4]; ASO 1.0 μM) was 119 % baseline value and the “TMPRSS2 mRNA levels (% baseline value) of cells without AR agonist treatment” value ([4]; ASO 5.0 μM) was 141 % baseline value. For the same compound, the “TMPRSS2 mRNA levels in LMR20 cells” value ([4]; with or without DHT/R1881) was “did not reduce either PSA or TMPRSS2 mRNA levels”, the “cleaved PARP levels (western blot)” value [5] was “increased in a dose-dependent manner” and the “Proliferation (% untreated control) in 22RV1 cells treated with MDV-3100” value ([6]; 0.04 μM) was 87%. The “Proliferation (% untreated control) in 22RV1 cells treated with MDV-3100” value ([6]; 0.2 μM) was 83%, the “Proliferation (% untreated control) in 22RV1 cells treated with MDV-3100” value ([6]; 1.0 μM) was 81% and the “Proliferation (% untreated control) in 22RV1 cells treated with MDV-3100” value ([6]; 5.0 μM) was 74%. For the same compound, the “proliferation of 22RV1 cells” value [6] was “reduced proliferation of the cells in a dose dependent compared to the control”, the “Percent inhibition of PSA expression” value ([7]; 0.04 μM) was 9% and the “Percent inhibition of PSA expression” value ([7]; 0.2 μM) was 8%. The “Percent inhibition of PSA expression” value ([7]; 1 μM) was 51%, the “Percent inhibition of PSA expression” value ([7]; 5.0 μM) was 73% and the “Percent inhibition of PSA expression in C4-2 cells cultured in complete medium” value ([7]; 0.04 μM) was 28%. The “Percent inhibition of PSA expression in C4-2 cells cultured in complete medium” value ([7]; 0.2 μM) was 40%, the “Percent inhibition of PSA expression in C4-2 cells cultured in complete medium” value ([7]; 1 μM) was 72% and the “Percent inhibition of PSA expression in C4-2 cells cultured in complete medium” value ([7]; 5.0 μM) was 89%.
